Reference: patent US9375457B2, “Composition comprising Rhizoma coptidis, Cortex phellodendri and Fructus gardeniae and for treating neurodegenerative diseases” (Hong Kong Baptist University, priority 2013, dated 2016)

How the values were obtained:
[1] = system: Aβ1-40 and Aβ1-42 in brain of TgCRND8 mice; test: Aβ ELISA of serially extracted brain fractions of TgCRND8 mice; type: in vivo; settings: oral, 25 mg/kg per day
Excerpt: All animal handling experiments were approved by the Hong Kong Baptist University Committee on the Use of Human and Animal Subjects in Teaching and Research (HASC, approval #: 12-13/0030). TgCRND8 mice expressing human APP with Swedish (K670N/M671L) and Indiana (V717F) mutations were used to evaluate the effect of baicalein on Aβ. Heterozygous TgCRND8 mice on a C57BL/6J background were used to breed a colony of experimental animals. The TgCRND8 mouse is an early onset model of AD with visible Aβ deposits in the brains of the animals starting from 3 months of age as described in Chishti M A, Yang D S, Janus C, Phinney A L, Home P, Pearson J, Strome R, Zuker N, Loukides J, French J, Turner S, Lozza G, Grilli M, Kunicki S, Morissette C, Paquette J, Gervais F, Bergeron C, Fraser P E, Carlson G A, George-Hyslop P S, Westaway D. (2001) Early-onset amyloid deposition and cognitive deficits in transgenic mice expressing a double mutant form of amyloid precursor protein 695. J Biol Chem 276: 21562-21570. The animals are housed in a controlled environment under a 12/12 hours light/dark cycle. They are allowed free access to food and water. The oral administration of baicalein (25 mg/kg/d) is commenced at 2 months of age and ended at 5 months before being killed. A single dose (25 mg/kg/d) of baicalein is tested in animal study as no difference in baicalein levels in the brain between doses of 25 and 50 mg/kg/d is found in our pilot study. Control mice orally gavaged with tap water only for the same administration period. At the conclusion of the treatment period, mice were deeply anesthetized by chloral hydrate and perfused with phosphate buffered saline (PBS). The brains were then dissected and processed for Aβ immunostaining
To detect differences in the level of APP metabolic products among treatment groups, the levels of Aβ, F1-APP, pAPPThr668, CTFs, sAPPα and sAPPβ-sw are measured after a 3-step sequential extraction using Tris buffered saline (TBS) (pH 7.4), 1% Triton X-100/TBS (TBSX) and formic acid (FA) methods as described in Youmans K L, Leung S, Zhang J, Maus E, Baysac K, Bu G, Vassar R, Yu C, LaDu M J. (2011) Amyloid-β42 alters apolipoprotein E solubility in brains of mice with five familial AD mutations. J Neurosci Methods 196: 51-59. All extraction buffers also contained protease and phosphatase inhibitor cocktail (Roche Diagnostics, Basel, Switzerland). Snap frozen tissue is homogenized in 15 volumes (w/v) of TBS homogenization buffer and centrifuged at 100,000×g for 1 h at 4° C. using a Type 70 Ti rotor in an Optima™ L-80XP Ultracentrifuge (Beckman Coulter, Fla., USA). The TBS-soluble fraction is aliquoted, frozen in liquid nitrogen and stored at −80° C. The pellets are resuspended in 15 volumes of TBSX and kept on ice for 30 minutes, followed by a second centrifugation at 100,000×g for 1 hour at 4° C. The TBSX soluble fraction is aliquoted, frozen and stored as for the TBS fraction. The TBSX-insoluble pellet is resuspended in 2 mL of 70% FA and centrifuged at 100,000×g at 4° C. for 1 hour. The FA extracts are neutralized by the addition of 20 volumes of 1 M Tris pH 11, aliquoted and stored at −80° C. Total protein content in TBS- and TBSX-extracts is determined via BCA assay. […]
The levels of intracellular Aβ1-40 and Aβ1-42 are quantified by using a sandwich ELISA as previously described by Durairajan et al., 2011 with minor modification. Equal amounts of cell or brain lysates are used for Aβ quantification by sandwich ELISA. […]

[2] = system: Aβ plaques in TgCRND8 mice; test: Immunohistochemistry of Aβ plaque burden in TgCRND8 mice; type: in vivo; settings: oral, 25 mg/kg per day, 3 months, 4G8 immunostaining, p<0.05
Excerpt: All animal handling experiments were approved by the Hong Kong Baptist University Committee on the Use of Human and Animal Subjects in Teaching and Research (HASC, approval #: 12-13/0030). TgCRND8 mice expressing human APP with Swedish (K670N/M671L) and Indiana (V717F) mutations were used to evaluate the effect of baicalein on Aβ. Heterozygous TgCRND8 mice on a C57BL/6J background were used to breed a colony of experimental animals. […]
Immunohistochemistry and image analysis of Aβ plaques is performed on coronal brain sections from TgCRND8 mice treated with baicalein or tap water as described previously by Durairajan et al. 2012. […] Images are obtained with a Nikon fluorescent inverted microscope with digital Nikon camera and analyzed by Image J software. Aβ plaque burden is calculated as the area occupied by the Aβ plaques as a percentage of total area of the brain sections.

O=c1cc(-c2ccccc2)oc2cc(O)c(O)c(O)c12 [baicalein]
effect on TBS soluble Aβ levels in brain ([1]; TBS fraction): did not significantly affect | increase of Aβ1-40 in TBSX-soluble brain fraction ([1]; TBSX fraction): 35% | increase of Aβ1-42 in TBSX-soluble brain fraction ([1]; TBSX fraction): 65% | increase of Aβ1-40 in FA brain fraction ([1]; formic acid fraction): 80% | increase of Aβ1-42 in FA brain fraction ([1]; formic acid fraction): 32% | increase of area occupied by Aβ deposits in cortex and hippocampus [2]: 44%
